The values that follow come from patent US7378513B2, “Isolated proteins from a traditional Chinese medicine Yuzhu and use thereof” (priority 2005, dated 2008).

Broadly, the IC50 is the midpoint of a concentration-inhibition curve.

In series [1] the test system is HSV-1 (15577). The series is described as follows: microbe, parasite or virus in culture. The format is cell-based, Herpes Simplex Virus. The settings on record: Human alphaherpesvirus 1; plaque reduction assay, Vero cells; M2 value is the average of two. On the technique in general: Plaques are areas of infected cells; plaque reduction assays count them against a control.

Series [2] has as its system HSV-1 (15577). The experiment in a line: microbe, parasite or virus in culture. The format is cell-based, Herpes Simplex Virus. The note with it: Human alphaherpesvirus 1, CPE method.
Series [3] relates to HSV-2. The series is described as follows: Cytopathic effect (CPE) inhibition assay, HSV-2. The format is cell-based, Herpes Simplex Virus. The settings on record: Human alphaherpesvirus 2; CPE method, Vero cells. A general note: Protection from cytopathic effect is a common read-out in antiviral testing.
Series [4] concerns RSV (long strain). The experiment in a line: microbe, parasite or virus in culture. The format is cell-based. The note with it: human respiratory syncytial virus; plaque reduction assay.
In series [5] the test system is RSV (long strain). The series is described as follows: microbe, parasite or virus in culture. The format is cell-based, respiratory syncytial virus. The note with it: CPE method; for IC50: human respiratory syncytial virus.
Series [6] relates to rabbit erythrocytes. The experiment in a line: Hemagglutinating test, rabbit red blood cells. The format is cell-based. Here is the method:
The assay was carried out in a U-shape microtiter plate as described previously (Ooi et al., 1998). […] Specific hemagglutinating activity was expressed as the number of hemagglutinating units per mg protein in Table 3. Rabbit, human (ABO groups), and chicken red blood cells were used for hemagglutinating test. Concanavalin A (ConA) was used as a positive control, and phosphate-buffered saline (PBS, 0.1M, pH7.4) as a negative control. A serial twofold dilution of the lectin solution (in PBS) in microtitre U-plates (50 μl) was mixed with 50 μl of a 2% suspension of red blood cells in PBS at room temperature. The results were read after about one hour when the blank (with red blood cells and buffer only) had fully sedimented.

In brackets after ≈: the same amount, converted by molar mass. Read-outs that look alike come from different tables or passages of the source.

For `Nc1nc2c(ncn2COCCO)c(=O)[nH]1` [Acyclovir], the IC50 in series [1] stood at 0.15 µg/mL (≈ 0.666 µM); in series [2] (Vero cells, Table 4a Yuzhu (Dried Herbs)), 0.25 µg/mL (≈ 1.11 µM); in series [2] (Table 4b Yuzhu (Fresh Herbs)), 0.25 µg/mL (≈ 1.11 µM); in series [3], 0.35 µg/mL (≈ 1.55 µM).
For the compound `NC(=O)c1ncn([C@@H]2O[C@H](CO)[C@@H](O)[C@H]2O)n1` [Ribavirin], the IC50 in series [4] stood at 3.3 µg/mL (≈ 13.5 µM); in series [5] (HEp-2, Hep2 cells, Table 4a Yuzhu (Dried Herbs), read-out: IC50 RSV (long strain)), 6.3 µg/mL (≈ 25.8 µM); in series [5] (Table 4b Yuzhu (Fresh Herbs), read-out: IC50 RSV) it was 6.3 µg/mL (≈ 25.8 µM). In series [5] (Hep2 cells, Table 4a Yuzhu (Dried Herbs), listed as Ribvirin), the “IC50 RSV (long strain)” value is reported as “(6.3) μg/ml”.
In the case of Concanavalin A [ConA], in series [6], the Specific hemagglutinating activity was 12,800 U/mg protein.
